Source: patent US20250340881A1, “PHARMACEUTICAL COMPOSITION FOR TREATING CANCER COMPRISING FOXM1 MUTANT OR FOXM1 SHRNA” (Industry-University Cooperation Foundation Hanyang …, priority 2022, published 2025)

Experiments:
Assay type in all cases: cell-based
[1] = tested on: A549 lung cancer cells; assay: Transwell migration assay of A549 cells expressing FoxM1 WT or point mutants; conditions: Transwell, 72 hours, control set to 1; TGF-β 5 ng/ml positive control
Protocol: To examine the effects of FoxM1 WT, phosphorylation, and non-phosphorylated point mutants on the motility of cancer cells, the migration assay was performed in A549 lung cancer cells expressing mutant proteins.
Specifically, 5×10^4 cells of lung cancer cells A549 expressing each of WT, phosphorylation, and non-phosphorylated point mutant of FoxM1 were seeded in an 8.0 μm, 24 well insert, and the inserts were placed in a 24-well plate after medium with 10% fetal bovine serum (FBS) was dispensed in the 24-well plate. For the positive control, 0.5 ml of RPMI1640 (10% FBS) containing 5 ng/ml of TGF-β was used. After 72 hours from cell seeding, 500 μl of 4% paraformaldehyde was dispensed, washed three times with 1×PBS, and stained with 0.05% crystal violet solution for 5 minutes. After 5 minutes, the cells were washed five times with 1×PBS, and the staining intensity was measured using the Odyssey infrared imaging system.
Specifically, 5×10^4 cells of lung cancer cells A549 expressing control and FoxM1 WT were seeded in an 8.0 μm, 24 well insert, and the inserts were placed in a 24-well plate after medium with 10% fetal bovine serum (FBS) was dispensed in the 24-well plate. For the positive control, 0.5 ml of RPMI1640 (10% FBS) containing 5 ng/ml of TGF-β was added and used. After 72 hours from cell seeding, 500 μl of 4% paraformaldehyde was dispensed, washed three times with 1×PBS, and stained with 0.05% crystal violet solution for 5 minutes. After 5 minutes, the cells were washed five times with 1×PBS, and the staining intensity was measured using the Odyssey infrared imaging system.

[2] = tested on: A549 lung cancer cells; assay: Wound healing assay of A549 cells expressing FoxM1 phosphorylated point mutants; conditions: distance in the control group at 72 h set to 0%
Protocol: To observe the effects of phosphorylation point mutations on the motility of cancer cells, a wound healing assay was performed in lung cancer cells A549 expressing FoxM1 wild type (WT), phosphorylated point mutants S25E, S361E, and S715E, and a simultaneous triple-point mutation EEE protein.
Specifically, cells expressing the gene of FoxM1 point mutant by the lentivirus system were seeded into 6-well plates at 1×10^5 cells/well each. 24 hours after cell seeding, scratches were made at regular intervals using a 200 μl-pipette tip. In addition, A549 cells treated with mock as a negative control (Mock) and 5 ng/ml of TGF-β as a positive control were used. […] In addition, the distance in the control group at 72 h was set to 0%, and the relative distance was represented as a bar graph (FIG. 4G).

[3] = tested on: A549 lung cancer cells; assay: Migration assay of TGF-β-treated A549 cells treated with peptide; conditions: TGF-β 5 ng/ml, 48 hours
Protocol: To determine the effects of treatment of the FoxM1 non-phosphorylated point mutant peptide on cancer cell motility in the metastatic environment treated with TGF-β, a migration assay was performed.
Specifically, 5×10^4 cells of A549 lung cancer cells were seeded in an 8.0 μm, 24 well insert, and the inserts were placed in a 24-well plate after medium with 10% fetal bovine serum (FBS) was dispensed in the 24-well plate. For the positive control, 0.5 ml of RPMI1640 (10% FBS) containing 5 ng/ml of TGF-β was dispensed, and 5 μM of the non-phosphorylated point mutant peptide was treated simultaneously. After 48 hours from cell seeding, 500 μl of 4% paraformaldehyde was dispensed into the plate, and the plate was washed three times with 1×PBS and stained with 0.05% crystal violet solution for 5 minutes. After 5 minutes, the plate was washed with 1×PBS five times, and the stained intensity was measured using the Odyssey infrared imaging system. When the stained intensity of the control group was set to 1, the relative stained intensity of each experimental group was represented in a graph.

## TGF-β [reference compound]
[1]
  cancer cell migration (stained intensity), increase compared to the control group: approximately 4 fold
[2]
  relative healing distance (motility) at 72 h: 51%
[3]
  stained intensity (migration) compared to the control group: 4 folds
